From patent publication US10238714B2, “Method for forming an immune-tolerant site and method for attracting immunosuppressive cells” (KYOTO UNIVERSITY, priority 2015, dated 2019)

Assays:
[1] = tested on: regulatory T cells (CD4+Foxp3+ cells); assay: Flow cytometry of immune cells from tissue where SEK-1005-containing agarose rod was embedded under the skin: regulatory T cells; format: in vivo, ACI rats; settings: for ratio of Foxp3+ cells among CD4+ cells: STZ-diabetic ACI rats
Description: (§1) In a polystyrene tube with an inner diameter of 4 mm, 4.5% agarose solution was poured, and the tube was then left to stand at normal temperature to allow gelation of the agarose solution. The resulting agarose gel rod was removed from the polystyrene tube, and cut into a piece having a length of 25 mm. Subsequently, the agarose gel rod was stored in a freezer at −30° C. overnight to allow freezing of water. By freeze-drying the frozen agarose rod, a porous dry agarose rod was prepared. To the dry agarose rod, 50 μl of a solution of 2 mg/ml SEK-1005 in ethanol was added dropwise to include the SEK-1005 solution in the dry agarose rod. Ethanol was then evaporated by air drying.
(§2) On the day when the agarose rod was to be embedded, streptozotocin (STZ) (60 mg/kg body weight) was administered to ACI rats to induce diabetes. To each of the left side and the right side of the back of each ACI rat, the agarose rod having a length of 25 mm and a diameter of 4 mm containing 100 μg of SEK-1005 was embedded. On Day 10 after the embedding, the agarose rod was removed. In the vicinity of each place where the agarose rod had been embedded, formation of connective tissue containing a number of blood vessels was found. This tissue was minced with scissors, and then homogenized, followed by collecting cells from the tissue. The cells were subjected to purification by Percoll density gradient centrifugation to obtain immune cells, and the obtained immune cells were analyzed using a flow cytometer.
The ratio of Foxp3^+ cells among CD4^+ cells was 18.3% on Day 2, 20.8% on Day 7, 23.3% on Day 10, and 27.3% on Day 14 after the SEK-1005-containing agarose rod was embedded under the skin.

[2] = tested on: cytotoxic T cells (CD8+ T cells); assay: Flow cytometry of immune cells from tissue where SEK-1005-containing agarose rod was embedded under the skin: cytotoxic T cells; format: in vivo, ACI rats
Description: as §1
as §2, with “On Day 10 after the embedding, the agarose rod was removed.” left out
In normal subcutaneous tissues, the ratio is about 30%, and, when a foreign substance is embedded, the ratio increases to not less than 50% in most cases. The action of SEK-1005 suppressed such an increase.

TGF-β1 = TGF-β1 concentration in the exudate at the site of the SEK-1005-containing agarose rod; format: in vivo, ACI rats
Description: as §1, §2
The TGF-β1 concentration in the exudate was measured. The TGF-β1 concentration was 0.7±0.1 ng/ml until Day 7 after the SEK-1005-containing agarose rod was embedded. […] This was about 3 times the concentration in a treated group in which an SEK-1005-free agarose rod was embedded.

CD8+ T cells = assay: Treg suppression assay with CD4+CD25+ cells collected from tissue near the SEK-1005-containing agarose rod; format: cell-based, ACI rats; settings: Group 2: CFSE-stained CD8+ T cells, 1 μg/mL anti-CD3 antibody plus 2.5×10^4 CD4+CD25+ cells from Day 10 rod tissue, Day 4.5; Group 1 without these cells 42.4%
Excerpt: On Day 10 after embedding of the SEK-1005-containing agarose rod by the same operation as in Example 1, the tissue in the vicinity of the place where the rod was embedded was collected, and then homogenized, followed by collecting cells from the tissue. The cells were subjected to purification by Percoll density gradient centrifugation to obtain immune cells, and CD4^+CD25^+ cells (a fraction containing a large number of tissue-infiltrating regulatory T cells) were collected using MACS magnetic beads.
CD8^+ T cells were separately prepared from ACI rats, and the cells were then stained with a fluorescent dye, carboxyfluorescein succinimidyl ester (CFSE). On a 96-well plate, 2.5×10^4 CD8^+ T cells and 5×10^4 antigen-presenting cells were plated in each well, and the cell growth was quantitatively evaluated using a flow cytometer on Day 4.5 after the plating. The wells were divided into three groups. In Group 1, 1 μg/mL anti-CD3 antibody was added to stimulate the growth. In Group 2, 1 μg/mL anti-CD3 antibody as well as 2.5×10^4 CD4^+CD25^+ cells were added. In Group 3, no anti-CD3 antibody was added.
One round of cell division of T cells stained with a fluorescent dye results in a decrease in the fluorescence intensity to half. Another division results in a decrease in the fluorescent intensity to one fourth of the original intensity. […]

[3] = tested on: chemokine/cytokine-associated genes; assay: Gene expression analysis of tissue in vicinity of embedded SEK-1005-containing agarose rod; format: in vivo, rat; settings: Day 7 after embedding, versus SEK-1005-free agarose rod group
Excerpt: (§3) On Day 7 after embedding of the SEK-1005-containing agarose rod by the same operation as in Example 1, the tissue in the vicinity of the place where the rod was embedded was collected. The collected tissue was immediately impregnated with RNA later solution (Life Technologies) to inhibit RNA degradation. RNA in the tissue was extracted by the column method. The extracted RNA was amplified by the Express kit method (Affymetrix) and biotin-labeled, followed by hybridization with a Rat Genome 230 2.0 array (Affymetrix). Signals were read by a Hewlett-Packard GeneArray Scanner G2500A. By such a process, gene expression analysis was carried out for three tissue samples obtained from the vicinities of SEK-1005-containing agarose rods and three tissue samples obtained from the vicinities of control SEK-1005-free agarose rods. The obtained fluorescence intensities were standardized and normalized, and then subjected to statistical analysis. The standardized and normalized gene expression level was statistically compared between the SEK-1005-containing agarose rod group and the control SEK-1005-free agarose rod group. Genes showing increased expression in the SEK-1005-containing agarose rod group were plotted such that their values along the X-axis became positive. Log 2 conversion was carried out in terms of the X-axis. […]

[4] = Blood glucose level after transplantation of pancreatic islets into the site where the SEK-1005-containing agarose rod was embedded; format: in vivo; settings: then removed, 1,500 F344 rat islets per cavity, STZ-diabetic ACI rats
Description: On the day when the SEK-1005-containing agarose rod was to be embedded, streptozotocin (STZ) (60 mg/kg body weight) was administered to ACI rats to induce diabetes. Under the skin of each of the left side and the right side of the back of each ACI rat, the agarose rod prepared in the same way as Example 1 was embedded. On Day 2 or Day 10 after the embedding, the agarose rod was removed, and 1,500 pieces of pancreatic islets separated from the pancreases of F344 rats were transplanted to each of the two dorsal subcutaneous cavities formed. After the transplantation, the blood glucose levels of the rats were measured. […] When SEK-1005-free agarose rod was embedded in the STZ-administered rats for 10 days and after removal of the agarose-rod, pancreatic islets were transplanted to the embedded site, the blood glucose levels of the diabetic rats were not decreased.

[5] = tested on: regulatory T cells (CD4+Foxp3+ cells); assay: Flow cytometry of immune cells at site where bFGF-containing agarose rod was embedded: regulatory T cells; format: in vivo, ACI rats; settings: for ratio of Foxp3+ cells among CD4+ cells: STZ-diabetic ACI rats
Description: as §1, with “mm, 4.5” for “mm, 4.5%”, “rod, 100” for “rod, 50”, “of 500 μg/ml bFGF” for “of a”, “solution (FIBLAST Spray 500, Kaken Pharmaceutical Co., Ltd.)” for “solution of 2 mg/ml SEK-1005 in ethanol”, “the bFGF” for “the SEK-1005”, “rod.” for “rod. Ethanol was then evaporated by air drying.”
(§4) On the day when the agarose rod was to be embedded, streptozotocin (STZ) (60 mg/kg body weight) was administered to ACI rats to induce diabetes. To each of the left side and the right side of the back of each ACI rat, the agarose rod having a length of 25 mm and a diameter of 4 mm containing 50 μg of bFGF was embedded. On Day 7 after the embedding, the agarose rod was pulled out. In the vicinity of each place where the agarose rod had been embedded, formation of connective tissue containing a number of blood vessels was found. This tissue was collected, and then minced with scissors, followed by homogenization. The cells were then subjected to purification by Percoll density gradient centrifugation to obtain immune cells, and the obtained immune cells were analyzed using a flow cytometer.
The ratio of Foxp3^+ cells among CD4^+ cells was 25.4% on Day 2, 24.4% on Day 7, 24.4% on Day 10, and 26.4% on Day 14 after the bFGF-containing agarose rod was embedded under the skin.

[6] = tested on: myeloid-derived suppressor cells (MDSCs); assay: Flow cytometry for CD11b/c and granulocytes at site where bFGF-containing agarose rod was embedded; format: in vivo, ACI rats; settings: group in which the agarose rod-bFGF was embedded
Description: as §1, with “mm, 4.5” for “mm, 4.5%”, “rod, 100” for “rod, 50”, “of 500 μg/ml bFGF” for “of a”, “solution (FIBLAST Spray 500, Kaken Pharmaceutical Co., Ltd.)” for “solution of 2 mg/ml SEK-1005 in ethanol”, “the bFGF” for “the SEK-1005”, “rod.” for “rod. Ethanol was then evaporated by air drying.”
as §4, with “This tissue was collected, and then minced with scissors, followed by homogenization.” left out, “cytometer. […]” for “cytometer.”

[7] = tested on: chemokine/cytokine-associated genes; assay: Gene expression analysis of tissue in vicinity of embedded bFGF-containing agarose rod; format: in vivo, rat; settings: Day 7 after embedding, versus bFGF-free agarose rod group
Excerpt: as §3, with “bFGF-containing” for “SEK-1005-containing”, “4,” for “1,”, “bFGF-free” for “SEK-1005-free”

CC(C)CC1CCC(O)(C(C)(O)C(=O)NC2C(=O)N3NCCCC3C(=O)N(O)C(C)C(=O)N(C)C(Cc3ccccc3)C(=O)N3NCCCC3C(=O)NC(CO)C(=O)OC2C(C)C)OC1C (stereo not drawn) [SEK-1005, Ser, 3-hydroxy-N-[2-hydroxy-1-oxo-2-tetrahydro-2-hydroxy-6-methyl-5-(2-methylpropyl)-2H-pyran-2-yl-propyl]-Leu-Pip(hexahydro-3-pyridazinecarbonyl)-N-hydroxy-Ala-N-methyl-Phe-Pip-rho-lactone]
ratio of Foxp3+ cells among CD4+ cells ([1]; Day 2 after rod with 100 μg SEK-1005 embedded under the skin): 18.3% | ratio of Foxp3+ cells among CD4+ cells ([1]; Day 7 after rod with 100 μg SEK-1005 embedded under the skin): 20.8% | ratio of Foxp3+ cells among CD4+ cells ([1]; Day 10 after rod with 100 μg SEK-1005 embedded under the skin): 23.3% | ratio of Foxp3+ cells among CD4+ cells ([1]; Day 14 after rod with 100 μg SEK-1005 embedded under the skin): 27.3% | increase of ratio of regulatory T cells (CD4+Foxp3+ cells) ([1]; versus about 10% in normal subcutaneous tissues): 2- to 3 fold | ratio of cytotoxic T cells (CD8+ T cells) to CD4+ cells among CD3+ cells ([2]; Day 2 after SEK-1005-containing agarose rod embedded under the skin): 36.1% | ratio of cytotoxic T cells (CD8+ T cells) to CD4+ cells among CD3+ cells ([2]; Day 7 after SEK-1005-containing agarose rod embedded under the skin): 33.7% | ratio of cytotoxic T cells (CD8+ T cells) to CD4+ cells among CD3+ cells ([2]; Day 10 after SEK-1005-containing agarose rod embedded under the skin): 25.5% | ratio of cytotoxic T cells (CD8+ T cells) to CD4+ cells among CD3+ cells ([2]; Day 14 after SEK-1005-containing agarose rod embedded under the skin): 23.9% | TGF-β1 concentration in the exudate (TGF-β1; Day 10 after the embedding): 2.0 ± 1.0 ng/mL | TGF-β1 concentration relative to SEK-1005-free agarose rod group (TGF-β1; Day 10 after the embedding): about 3 times | TGF-β1 concentration in the exudate (TGF-β1; until Day 7 after the rod was embedded): 0.7 ± 0.1 ng/mL | ratio of cells exhibiting decreased fluorescence intensity due to cell division (CD8+ T cells): 13.4% | expression of genes associated with migration/induction of regulatory T cells among chemokine/cytokine-associated genes [3]: significant increase | expression of genes not associated with migration/induction of regulatory T cells among chemokine/cytokine-associated genes [3]: significant decrease | blood glucose levels after transplantation of pancreatic islets ([4]; rod embedded for ten days): normalized | blood glucose levels after transplantation of pancreatic islets ([4]; rod embedded for two days): > 400 mg/dL

bFGF: basic fibroblast growth factor; bFGF solution (FIBLAST Spray 500, Kaken Pharmaceutical Co., Ltd.)
ratio of Foxp3+ cells among CD4+ cells ([5]; Day 2 after rod with 50 μg bFGF embedded under the skin): 25.4% | ratio of Foxp3+ cells among CD4+ cells ([5]; Day 7 after rod with 50 μg bFGF embedded under the skin): 24.4% | ratio of Foxp3+ cells among CD4+ cells ([5]; Day 10 after rod with 50 μg bFGF embedded under the skin): 24.4% | ratio of Foxp3+ cells among CD4+ cells ([5]; Day 14 after rod with 50 μg bFGF embedded under the skin): 26.4% | increase of ratio of regulatory T cells ([5]; versus about 10% in normal subcutaneous tissues and bFGF-free agarose rod-embedded rats): 2- to 3 fold | granulocyte marker [6]: increase | myeloid-derived suppressor cells (MDSCs) [6]: induced | expression of genes associated with migration/induction of regulatory T cells among chemokine/cytokine-associated genes [7]: significant increase | expression of genes not associated with migration/induction of regulatory T cells among chemokine/cytokine-associated genes [7]: significant decrease
